Laboratory results published in patent US7306938B2, “High throughput screen for inhibitors of fatty acid biosynthesis in bacteria” (priority 1999, dated 2007).
≈ marks a conversion by molar mass, not a printed value.

Key:
PylpC promoter = test: lacZ reporter assay of promoter induction, strain PY79(amy::PylpC::lacZ, cat); format: cell-based, B. subtilis; conditions: various concentrations, 96-well microplate, 3 hours (FIG. 8)
Source text: (§1) Clones containing the PyhfB, PyjaXY, and PylpC promoters have been described in GenBank, and the accession numbers for these clones are set forth in Table 2.
(§2) The reporter strains used in these assays were constructed as follows. PCR products containing the promoters were digested with EcoRI and BamHI, and cloned into the multiple cloning site of pDG268, which also had been digested with EcoRI and BamHI. The plasmid pDG268 is a derivative of pGD364 (See, Cutting and Van der Horn, Molecular Biological Methods for Bacillus, eds. C. R. Harwood and S. M. Cutting, 1990, John Wiley and Sons, NY, N.Y., pp. 52-54). […]
(§3) The reporter strains were incubated, separately, with triclosan or cerulenin at various concentrations, as shown on the X-axes depicted in FIGS. 7 and 8. Each strain and an antibacterial agent were incubated in a 96-well microplate for 3 hours. β-galactosidase activity was detected using the Tropix Galacton Star™ chemiluminescent substrate (3-chloro-5-(4-methoxyspiro{1,2-dioxetane-3,2′-(4′chloro)-tricyclo-[3.3.1.1^3,7]decan}-4-yl)phenyl-B-D-galactopyranoside) and the detection method described below. The fold induction of promoter activity was calculated as the level of activity in the samples containing the antibacterial agent divided by the level of activity in the samples that lacked the agent. […]

PyhfB promoter = test: lacZ reporter assay of promoter induction, strain PY79(amy::PyhfB::lacZ, cat); format: cell-based, B. subtilis; conditions: various concentrations, 96-well microplate, 3 hours (FIG. 7)
Source text: as §1, §2, §3

[1] = tested on: B. subtilis reporter strains PY79(amy::PyhfB::lacZ, cat) and PY79(amy::PylpC::lacZ, cat); test: Minimum inhibitory concentration (MIC) determination in 96-well microtiter plate, OD600 read; format: cell-based; conditions: Bacillus subtilis, 18 h, read-out: minimum inhibitory concentration (MIC)
Protocol: The minimum inhibitory concentrations (MIC) for cerulenin and triclosan were determined for each of the reporter strains. To determine the MIC, a compound of interest (e.g., cerulenin or triclosan) was placed in a 96-well microtiter plate such that the concentration of the compound varies in various wells of the plate (e.g., by using a series of 2-fold dilutions of the compound). Approximately 5,000 cells from a logarithmically-growing culture (e.g., the B. subtilis strain PY79) in Luria broth were added to each well (e.g., in a volume of 50-80 μl). The plate then was incubated at 37° C. for approximately 18 hours. The OD600 was then read to measure cell growth in each well of the plate. The lowest concentration of the compound that leads to complete killing of the culture (i.e., the concentration of compound for which the OD600 nm is equal to a control well that contains only media and the test compound) is deemed the MIC for the particular compound and bacterial strain. The MICs for cerulenin and triclosan were 12.5 μg/ml and 5 μg/ml, respectively, for both of the reporter strains. Such inhibitors can be used as lead compounds, which can subsequently be derivatized using standard medicinal chemistry techniques to produce antibacterial agents.

[2] = tested on: PyhfB, PyjaXY, PylpC, and PyydK promoters; test: RNA (transcriptional) profiling of bacterial cells treated with FAB pathway inhibitors; format: cell-based, B. subtilis; conditions: cerulenin 0.5 or 5 μg/ml, triclosan 0.1 or 1 μg/ml; LB medium, 37° C., 10, 30, or 60 minutes
Source text: Genetic Constructs: Conventional transcriptional profiling methods can be used to identify promoters that have increased activity in the presence of antibacterial agents such as cerulenin and triclosan, which are inhibitors of FAB.

| Compound | activity of the PylpC promoter (lacZ reporter, β-galactosidase chemiluminescence) (PylpC promoter) | activity of the PyhfB promoter (lacZ reporter, β-galactosidase chemiluminescence) (PyhfB promoter) | MIC [1] [µg/mL] | activity of the PyhfB, PyjaXY, PylpC, and PyydK promoters (RNA profiling) [2] |
| --- | --- | --- | --- | --- |
| Oc1cc(Cl)ccc1Oc1ccc(Cl)cc1Cl [triclosan] | increase the activity | increase the activity | 5 (≈ 17.3 µM) | increase in activity |
| C/C=C/C/C=C/CCC(=O)[C@H]1O[C@H]1C(N)=O [cerulenin, 2,3-Epoxy-4-oxo-7,1-dodecadienamide] | increase the activity | increase the activity | 12.5 (≈ 56 µM) | increase in activity |
